Columns and labels:
[1] = system: Cells of stomach cancer, SNU-601; test: In vivo anti-cancer activity of the poly(organophosphazene) hydrogel containing paclitaxel; set-up: species or system nude mouse; settings: 60 mg/kg, day 10 after administration, ten mice per group
Procedure: A nude mouse (OrientalBio, Balb/C, female of 5-weeks old, 20 g) was used as an animal model for animal experimentation for an in vivo test. Cells of stomach cancer, SNU-601 (1×10^7 cells, 0.2 ml, Korean Cell Line Bank), were injected into the dorsum of the mouse. […] 0.2 ml of the solution was injected into the cancer cells, and the change in the size of the cells was measured.
Each test was conducted for ten (10) mice for each of the control groups and the experimental groups.

[2] = target: T1, albumin (Bovin Serum Albumin; BSA) (Bos taurus, UniProt P02769); test: Gel electrophoresis for ionic bond between additives and protein drug; type: binding; settings: additive at various concentrations in 0.01% albumin solution
T1 construct: purchased Wako chemical
T1 sequence (P02769 25-607): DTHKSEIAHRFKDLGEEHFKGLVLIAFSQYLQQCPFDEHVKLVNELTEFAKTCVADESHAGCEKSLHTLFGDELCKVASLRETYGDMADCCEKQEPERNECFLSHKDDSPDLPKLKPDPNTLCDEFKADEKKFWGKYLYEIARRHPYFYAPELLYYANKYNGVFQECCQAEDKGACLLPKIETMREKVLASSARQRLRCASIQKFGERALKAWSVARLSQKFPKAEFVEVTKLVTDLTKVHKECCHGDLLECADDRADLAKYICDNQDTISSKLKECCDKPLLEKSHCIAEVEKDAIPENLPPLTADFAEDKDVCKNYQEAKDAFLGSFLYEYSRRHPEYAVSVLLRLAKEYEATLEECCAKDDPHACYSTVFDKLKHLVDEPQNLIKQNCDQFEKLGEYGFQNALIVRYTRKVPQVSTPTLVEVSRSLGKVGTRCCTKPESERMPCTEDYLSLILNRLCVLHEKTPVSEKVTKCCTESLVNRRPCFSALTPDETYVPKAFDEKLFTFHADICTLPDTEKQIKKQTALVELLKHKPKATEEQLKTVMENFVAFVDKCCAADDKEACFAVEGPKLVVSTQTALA
Procedure: Each of them was added to 0.01% albumin solution (Bovin Serum Albumin; BSA, Wako chemical) at various concentrations and sufficiently stirred. After holding for 20 minutes, an electrophoresis for each of the obtained solutions was conducted through polyacrylamide gel.

CC(=O)O[C@H]1C(=O)[C@@]2(C)[C@H]([C@H](OC(=O)c3ccccc3)[C@]3(O)C[C@H](OC(=O)[C@H](O)[C@@H](NC(=O)c4ccccc4)c4ccccc4)C(C)=C1C3(C)C)[C@]1(OC(C)=O)CO[C@@H]1C[C@@H]2O [Paclitaxel, paclitaxel]
mice died due to toxicity [1]: 8 mice

protamine
development property in polyacrylamide gel (ionic bond with albumin) [2]: worse development property of the gel as the concentration of the additive is higher

From patent publication US9526699B2, “Biodegradable and thermosensitive poly(organophosphazene) hydrogel, preparation method thereof and use thereof” (KIST, priority 2006, dated 2016)
